Columns and labels:
[1] = tested on: patients suffering from non-ulcerative dyspepsia; test: Clinical study of pindolol in non-ulcerative dyspepsia (GSRS scores); assay type: in vivo, humans; conditions: 2.5 mg three times daily
Description: The invention is intended for the treatment of mammals, including humans.
Eleven patients suffering from non-ulcerative dyspepsia were recruited to a clinical study and gave informed consent. All were treated with pindolol 2.5 mg three times daily. […] A further patient improved in the second week. Their responses were quantified using a standard rating scale (GSRS scores).

5HT1a receptor = target: T1, 5HT1a receptor (Homo sapiens, UniProt P08908); test: Buspirone challenge, prolactin release; assay type: in vivo; conditions: buspirone 30 mg orally; for Prolactin AUC (mean±SD): blood 0-180 min
T1 construct: Buspirone (30mg) or, matching placebo was administered orally; from tissue; host or cells: living human subjects (central receptors)
T1 sequence (P08908 1-422): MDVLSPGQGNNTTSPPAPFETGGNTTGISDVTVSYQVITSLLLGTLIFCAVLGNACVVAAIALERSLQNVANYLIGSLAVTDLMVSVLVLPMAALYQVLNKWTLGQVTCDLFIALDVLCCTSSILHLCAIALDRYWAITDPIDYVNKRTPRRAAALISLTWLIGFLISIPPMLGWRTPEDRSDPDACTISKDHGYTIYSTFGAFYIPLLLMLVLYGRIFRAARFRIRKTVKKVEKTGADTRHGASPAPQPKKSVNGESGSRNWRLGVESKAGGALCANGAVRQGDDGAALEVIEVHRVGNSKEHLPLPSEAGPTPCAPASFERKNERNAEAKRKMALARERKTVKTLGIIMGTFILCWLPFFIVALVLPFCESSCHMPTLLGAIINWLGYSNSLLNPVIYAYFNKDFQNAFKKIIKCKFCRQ
Excerpt: Studies indicate that a central 5HT1a receptor hypersensitivity may be involved in the pathophysiology of NUD (13,14). The release of prolactin from the anterior pituitary is under dopamine inhibition and under 5HT stimulation, probably at the level of the hypothalamus (15).
A total of 109 subjects, 50 NUD patients (39 female/11 male) and 59 healthy comparison subjects ([…]) gave fully informed consent to take part in the study, which had Ethics Committee approval. […] Buspirone (30mg) or, matching placebo was administered orally at 0900 h (Time 0). Blood was taken at 0, 30, 60, 90, 120 and 180 min.

gastric emptying = conditions: intracerebroventricular injection, animal studies; cited from earlier work

CC(C)NCC(O)COc1cccc2[nH]ccc12 (racemic) [pindolol]
Mean GSRS Score ([1]; Week 0 (baseline), average of 11 patients): 9 | Mean GSRS Score ([1]; Week 1, average of 11 patients): 4.2 | Mean GSRS Score ([1]; Week 2, average of 11 patients): 3.5 | Mean GSRS Score ([1]; Week 3, average of 11 patients): 2.9 | Reduction in average symptom severity ([1]; in three weeks): approximately 68% | Patients with significant improvement in symptoms ([1]; within 1 week of commencing treatment): Seven of the 11

O=C1CC2(CCCC2)CC(=O)N1CCCCN1CCN(c2ncccn2)CC1 [Buspirone]
Prolactin AUC (mean±SD) (5HT1a receptor; NUD patients): 46±35 | Prolactin levels after challenge (5HT1a receptor; all subjects): rose in all subjects | Prolactin AUC (mean±SD) (5HT1a receptor; healthy subjects): 24±35

CCNC(C)Cc1cccc(C(F)(F)F)c1 (stereo not shown) [fenfluramine]
Effect on gastric emptying (gastric emptying): inhibits gastric emptying

From US7098232B1, “Treatment and prevention of gastrointestinal disease using antagonists of partial agonists of 5HT1a receptors” (Athpharma Limited, priority 1999, dated 2006)
